Measurements as given in PubChem BioAssay AID463203 (Broad Institute, 2010).
The source made the active and inactive calls.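 Rule for the calls: active = more than half of replicate measurements showing over 20% loss of kinase signal relative to plate controls; inconclusive = some but at most half of replicates over 20% loss; inactive = no replicate over 20% signal loss.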

Target: Glycogen synthase kinase-3 alpha (Homo sapiens) (UniProt P49840)
Experiment: concentration-response blocking of human GSK3A – biochemical, luminescence, cell-free homogeneous, retest, dose response (AID 463203)
Conditions: GSK-3 alpha enzyme, ADP-Glo luminescence, 60 min

Chain of Glycogen synthase kinase-3 alpha (Homo sapiens) (P49840 whole entry, looked up): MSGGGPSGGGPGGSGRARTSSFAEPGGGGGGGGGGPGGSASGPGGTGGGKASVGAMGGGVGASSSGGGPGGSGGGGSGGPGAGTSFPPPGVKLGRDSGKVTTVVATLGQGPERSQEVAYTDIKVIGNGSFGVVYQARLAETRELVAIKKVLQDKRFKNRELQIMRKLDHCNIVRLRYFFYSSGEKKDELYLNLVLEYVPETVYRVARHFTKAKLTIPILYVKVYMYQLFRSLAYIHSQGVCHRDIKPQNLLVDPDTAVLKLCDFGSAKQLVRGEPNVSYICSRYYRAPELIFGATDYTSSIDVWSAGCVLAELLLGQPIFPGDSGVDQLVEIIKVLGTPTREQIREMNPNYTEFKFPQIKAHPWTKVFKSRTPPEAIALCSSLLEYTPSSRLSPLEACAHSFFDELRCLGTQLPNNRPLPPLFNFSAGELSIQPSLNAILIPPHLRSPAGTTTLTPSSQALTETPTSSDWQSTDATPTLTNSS

SMILES	AC50
Cc1cc(/C=N/O)c(C)n1-c1ccc(Br)cc1	> 30 µM (inactive)
COc1ccccc1N=c1oc2cc(O)ccc2cc1C(=O)NCC1CCCO1 (stereo not drawn)	> 30 µM (inactive)
COc1cc(C2CC(=O)N3CN(Cc4ccccc4)CSC3=C2C#N)ccc1OCc1ccccc1 (stereo not drawn)	> 30 µM (inactive)
Oc1ccc(-c2csc(Nc3cccnc3)n2)cc1	10.7 µM
Cc1sc2ncnc(NCc3cccs3)c2c1C	> 30 µM (inactive)
COc1ccccc1OC(C)C(=O)N1CCC(Cc2ccccc2)CC1 (stereo not drawn)	> 30 µM (inactive)
CCN1/C(=C/C=C/c2sc3ccccc3[n+]2CC)Sc2ccccc21	24.6 µM
CCOc1cc(/C=C2\SC(N)=NC2=O)ccc1O	22.9 µM
Cc1cc(OC(=O)c2c(C)cc(O)cc2O)cc(O)c1C(=O)O	27.8 µM
O=C1/C(=C/c2ccc(O)c(O)c2)Oc2cc(O)ccc21	10.5 µM
S=C(NCCc1ccccc1)Nc1cccc2cnccc12	> 30 µM (inactive)
CCCCSc1nc(C)[nH]c1[N+](=O)[O-]	> 30 µM (inactive)
O=c1[nH]c2c(s1)C(c1cccnc1)C1C3CCC(C3)C1S2 (stereo not drawn)	8.66 µM
NC(=O)c1cc([N+](=O)[O-])ccc1NCc1ccc(N)cc1	8.36 µM
O=c1c2ccccc2oc2cc(NCCCn3ccnc3)ccc12	> 30 µM (inactive)
Cc1cccc(NC(=O)CSCC(=O)OCc2ccccn2)c1	> 30 µM (inactive)
CCOc1ccc(-c2nnc(N)o2)cc1	> 30 µM (inactive)
COc1ccc(/C=C(\C#N)C(=O)N=CN(C)C)cc1	> 30 µM (inactive)
CCOc1cc(/C=C2\SC(N3CCCCC3)=NC2=O)ccc1O	> 30 µM (inactive)
O=C1N=C(C=c2ccc(=Cc3[nH]c(=O)[nH]c3O)cc2)C(=O)N1	15.5 µM
CN(CCO)c1ncnc2c1sc1nc(N3CCOCC3)c3c(c12)CCC3	> 30 µM (inactive)
O=C(NCCc1csc(-c2ccccc2)n1)c1ccc(Br)o1	17.4 µM
Cc1[nH]c2ccccc2c1N=Nc1cccc(C(=O)O)c1	> 30 µM (inactive)
Cc1ccc(S(=O)(=O)Nc2cccc3ncccc23)cc1	> 30 µM (inactive)

SMILES	AC50
Cc1nc(SCC(=O)NCC2CCCO2)c2c(C)c(C)sc2n1 (stereo not drawn)	> 30 µM (inactive)
Cc1cccc(C)c1OC(=O)Cc1ccccc1	> 30 µM (inactive)
CCc1nnc(NC(=O)CCc2nc(C3=CCN(C)CC3)no2)s1	> 30 µM (inactive)
O=C(/C(=N/N=C/c1ccc(O)c(O)c1)c1ccccc1)c1ccccc1	> 30 µM (inactive)
CCOC(=O)c1ccc(NC(=S)NCCc2ccccc2)cc1	> 30 µM (inactive)
CCCCCCN=C(C)c1c(O)n(CCCC)c(=O)[nH]c1=O	> 30 µM (inactive)
COc1c(-c2ccc(O)cc2)oc2cc(O)cc(O)c2c1=O	6.97 µM
O=Cc1cn(-c2ccccc2)nc1-c1ccc2c(c1)OCCO2	> 30 µM (inactive)
CCOC(=O)CC1COc2ccccc2N1C(=O)c1ccc(C)cc1 (stereo not drawn)	> 30 µM (inactive)
Cc1ccc(C)c(/C=N/Nc2ccccn2)c1	> 30 µM (inactive)
COc1ccc(C(=O)O/N=C(\N)c2ccccn2)c(OC)c1	> 30 µM (inactive)
Nc1nonc1-n1nnc(C(=O)N/N=C/c2ccccc2Cl)c1-c1ccccc1	> 30 µM (inactive)
CN(C)/C=C/c1[nH]c(=O)[nH]c(=O)c1[N+](=O)[O-]	> 30 µM (inactive)
COC(=O)c1cnn(C(=O)c2cc(OC)ccc2Br)c1N	> 30 µM (inactive)
COc1cccc(C(=O)NCC(=O)OCC(=O)c2ccccc2)c1	> 30 µM (inactive)
O=C(O)c1ccc(N=Cc2c(O)ccc3oc4c(c23)CCCC4)cc1	> 30 µM (inactive)
COc1cc(C2C(C#N)=C(N)Oc3n[nH]c(-c4cccs4)c32)cc(OC)c1O (stereo not drawn)	> 30 µM (inactive)
O=c1[nH]nc(SCc2ccccc2Cl)n1-c1ccc2c(c1)OCCO2	7.11 µM
CC(C)CCNc1nc(N)c([N+](=O)[O-])c(N2CCCCCC2)n1	8.86 µM
CC1(C)CC(=O)C(CS(=O)(=O)c2ccccc2)=C(O)C1	> 30 µM (inactive)
COC(=O)c1cnn(C(=O)c2ccccc2Br)c1N	> 30 µM (inactive)
O=C(O)c1[nH]c2ccc([N+](=O)[O-])cc2c1-c1ccccc1	11 µM
C#CCOCCOCCOCCNc1nc(N2CCN(C(=O)[C@H](CCC(=O)O)n3cc([C@@H](N)CCCCN)nn3)CC2)nc(N2CCN(C(=O)[C@H](CCC(=O)O)n3cc([C@@H](N)CCCCN)nn3)CC2)n1	> 30 µM (inactive)
CCOc1nc(NCCN2CCOCC2)nc(Nc2ccc([N+](=O)[O-])cc2)n1	> 30 µM (inactive)
